Measured values taken from patent US9150543B2, “Substituted indolyl alkyl amino derivatives as inhibitors of histone deacetylase” (Janssen Pharmaceutica N. V., priority 2004, dated 2015).
Values after ≈ are worked out from the molar mass of the structure shown.

Legend:
[1] = system: A2780 ovarian carcinoma cells; assay: Antiproliferative activity on A2780 cells, MTT (C.2); assay type: cell-based; conditions: Homo sapiens, 96 h, four days of incubation, read-out: Cellular activity pIC50 C.2 (converted)
Protocol: All compounds tested were dissolved in DMSO and further dilutions were made in culture medium. Final DMSO concentrations never exceeded 0.1% (v/v) in cell proliferation assays. Controls contained A2780 cells and DMSO without compound and blanks contained DMSO but no cells. MTT was dissolved at 5 mg/ml in PBS. A glycine buffer comprised of 0.1 M glycine and 0.1 M NaCl buffered to pH 10.5 with NaOH (1N) was prepared (all reagents were from Merck).
The human A2780 ovarian carcinoma cells (a kind gift from Dr. T. C. Hamilton [Fox Chase Cancer Centre, Pennsylvania, USA]) were cultured in RPMI 1640 medium supplemented with 2 mM L-glutamine, 50 μg/ml gentamicin and 10% fetal calf serum. Cells were routinely kept as monolayer cultures at 37° C. in a humidified 5% CO2 atmosphere. Cells were passaged once a week using a trypsin/EDTA solution at a split ratio of 1:40. All media and supplements were obtained from Life Technologies. Cells were free of mycoplasma contamination as determined using the Gen-Probe Mycoplasma Tissue Culture kit (supplier: BioMerieux).
Cells were seeded in NUNC™ 96-well culture plates (Supplier: Life Technologies) and allowed to adhere to the plastic overnight. Densities used for plating were 1500 cells per well in a total volume of 200 μl medium. After cell adhesion to the plates, medium was changed and drugs and/or solvents were added to a final volume of 200 μl. Following four days of incubation, medium was replaced by 200 μl fresh medium and cell density and viability was assessed using an MTT-based assay. To each well, 25 μl MTT solution was added and the cells were further incubated for 2 hours at 37° C. The medium was then carefully aspirated and the blue MTT-formazan product was solubilized by addition of 25 μl glycine buffer followed by 100 μl of DMSO. […] Within an experiment, the results for each experimental condition are the mean of 3 replicate wells. For initial screening purposes, compounds were tested at a single fixed concentration of 10^−6 M. For active compounds, the experiments were repeated to establish full concentration-response curves. For each experiment, controls (containing no drug) and a blank incubation (containing no cells or drugs) were run in parallel. The blank value was subtracted from all control and sample values. For each sample, the mean value for cell growth (in absorbance units) was expressed as a percentage of the mean value for cell growth of the control. […] Herein the effects of test compounds are expressed as pIC50 (the negative log value of the IC50-value)(see Table F-3).

[2] = molecular target: histone deacetylase (HeLa nuclear extracts); assay: In vitro assay for inhibition of histone deacetylase with fluorescent-labelled substrate (C.1.b); assay type: biochemical; conditions: Fluor de Lys substrate
Protocol: The HDAC Fluorescent Activity Assay/Drug Discovery Kit of Biomol (cat.No: AK-500-0001) was used. The HDAC Fluorescent Activity Assay is based on the Fluor de Lys (Fluorogenic Histone deAcetylase Lysyl) substrate and developer combination. The Fluor de Lys substrate, comprises an acetylated lysine side chain. Deacetylation of the substrate sensitizes the substrate so that, in the second step, treatment with the Fluor de Lys developer produces a fluorophore.
After 30 min, 1 volume of the developer was added. […] For each experiment, controls (containing HeLa nuclear extract and buffer), a blank incubation (containing buffer but no HeLa nuclear extract) and samples (containing compound dissolved in DMSO and further diluted in buffer and HeLa nuclear extract) were run in parallel. In first instance, compounds were tested at a concentration of 10^−5M. […] All sample were tested 4 times. In each test the blank value was subtracted from both the control and the sample values. The control sample represented 100% of substrate deactylation. For each sample the fluorescence was expressed as a percentage of the mean value of the controls. […] Herein the effects of test compounds are expressed as pIC50 (the negative log value of the IC50-value) (see Table F-3).

[3] = Solubility/stability at different pH's, chemiluminescent nitrogen detector (C.3.b); assay type: physicochemical; conditions: aqueous buffer; pH = 2.3
Description: In a second method the solubility of a compound at different pH's can be measured with the use of a Chemiluminescent Nitrogen Detector (see example C.3.b).
The solubility of a compound, at different pH's, can also be measured with the use of a chemiluminescent nitrogen detector. (see Table F-3).

IC50 [1] | Enzymatic activity pIC50 C.1.b [2] | solubility [3] | Structure (SMILES)
0.01 µM | 9.0 |  | O=C(NO)c1cnc(N2CCC(CNCc3cn(C4CCCC4)c4ccccc34)CC2)nc1 [Compound 46]
0.0316 µM | 8.3 |  | Cc1ccc2c(c1)c(CNCC1CCN(c3ncc(C(=O)NO)cn3)CC1)c(C)n2C [Compound 42]
0.0251 µM | 8.6 | 2.4 mg/mL (≈ 6.08 mM) | Cn1ccc2ccc(CNCC3CCN(c4ncc(C(=O)NO)cn4)CC3)cc21 [Compound 50]
0.0126 µM | 10.2 |  | O=C(NO)c1cnc(N2CCC(CNCc3cn(Cc4ccccc4)c4ccccc34)CC2)nc1 [Compound 54]
0.00794 µM | 8.4 | 2.7 mg/mL (≈ 6.61 mM) | Cc1ccc2c(CNCC3CCN(c4ncc(C(=O)NO)cn4)CC3)cn(C)c2c1 [Compound 79]
0.2 µM | 8.2 |  | Cc1[nH]c2ccccc2c1CNCC1CCN(c2ncc(C(=O)NO)cn2)CC1 [Compound 35]
0.0794 µM | 7.3 |  | CCCn1cc(CCNCC2CCN(c3ncc(C(=O)NO)cn3)CC2)c2ccc(OC)cc21 [Compound 75]
0.0316 µM | >9.0 |  | Cc1cccc2c1c(CNCC1CCN(c3ncc(C(=O)NO)cn3)CC1)cn2C [Compound 38]
0.0316 µM | 9.0 | 2 mg/mL (≈ 4.85 mM) | Cn1cc(CNCC2CCN(c3ncc(C(=O)NO)cn3)CC2)c2c(F)cccc21 [Compound 39]
0.0794 µM | 8.2 |  | COc1ccc2c(c1)c(CCNCC1CCN(c3ncc(C(=O)NO)cn3)CC1)cn2C [Compound 74]
0.0316 µM | 8.9 |  | Cn1cc(CNCC2CCN(c3ncc(C(=O)NO)cn3)CC2)c2ccc(F)cc21 [Compound 81]
0.0794 µM | 8.6 |  | COc1ccc2[nH]cc(CNCC3CCN(c4ncc(C(=O)NO)cn4)CC3)c2c1 [Compound 16]
0.00794 µM | 10.3 |  | CCCn1cc(CNCC2CCN(c3ncc(C(=O)NO)cn3)CC2)c2cc(F)ccc21 [Compound 52]
0.0316 µM | >9.0 | 1.6 mg/mL (≈ 3.4 mM) | CCN(CCc1cn(C)c2ccc(Cl)cc12)CC1CCN(c2ncc(C(=O)NO)cn2)CC1 [Compound 65]
0.02 µM | 9.0 |  | Cn1cc(CNCC2CCN(c3ncc(C(=O)NO)cn3)CC2)c2cc3c(cc21)OCO3 [Compound 59]
0.2 µM | 7.6 |  | CCC(=O)N(CCc1cn(C)c2ccc(Cl)cc12)CC1CCN(c2ncc(C(=O)NO)cn2)CC1 [Compound 69]
0.0316 µM | 8.1 | 3.7 mg/mL (≈ 9.7 mM) | O=C(NO)c1cnc(N2CCC(CNCc3cc4ccccc4o3)CC2)nc1 [Compound 10]
0.0158 µM | 10.1 | 2 mg/mL (≈ 4.77 mM) | Cn1cc(CNCC2CCN(c3ncc(C(=O)NO)cn3)CC2)c2cc(C#N)ccc21 [Compound 55]
0.0316 µM | 8.6 |  | Cc1cccc2c(CNCC3CCN(c4ncc(C(=O)NO)cn4)CC3)cn(C)c12 [Compound 37]
0.01 µM | 9.8 |  | Cn1cc(CNCC2CCN(c3ncc(C(=O)NO)cn3)CC2)c2cc(F)ccc21 [Compound 51]
0.2 µM | 7.8 |  | Cc1[nH]c2ccccc2c1CCNCC1CCN(c2ncc(C(=O)NO)cn2)CC1 [Compound 76]
0.0316 µM | 6.0 |  | O=C(NO)c1cnc(N2CCC(CNCc3c[nH]c4ccc(F)cc34)CC2)nc1 [Compound 13]
0.158 µM | 7.9 |  | CC(=O)N(Cc1cn(C)c2ccccc12)CC1CCN(c2ncc(C(=O)NO)cn2)CC1 [Compound 72]

IC50 [1] | Enzymatic activity pIC50 C.1.b [2] | solubility [3] | Structure (SMILES)
0.01 µM | 8.3 |  | Cn1cc(CNCC2CCN(c3ncc(C(=O)NO)cn3)CC2)c2cc([N+](=O)[O-])ccc21 [Compound 18]
1.58 µM | 10.0 |  | Cn1cc(CNCC2CCN(c3ncc(C(=O)NO)cn3)CC2)c2c(Cl)cccc21 [Compound 58]
0.0794 µM | 7.8 |  | Cn1cc(CNCC2CCN(c3ccc(C(=O)NO)cn3)CC2)c2ccccc21 [Compound 80]
0.0794 µM | 8.2 |  | Cc1ccc2[nH]cc(CNCC3CCN(c4ncc(C(=O)NO)cn4)CC3)c2c1 [Compound 12]
0.0316 µM | 8.5 |  | O=C(NO)c1cnc(N2CCC(CNCc3c[nH]c4ccc(Br)cc34)CC2)nc1 [Compound 15]
0.0316 µM | 8.5 |  | CCC(CC)n1cc(CNCC2CCN(c3ncc(C(=O)NO)cn3)CC2)c2ccccc21 [Compound 40]
0.0398 µM | 8.2 |  | CCCn1cc(CCNCC2CCN(c3ncc(C(=O)NO)cn3)CC2)c2ccccc21 [Compound 31]
0.0316 µM | 8.4 |  | CCn1cc(CNCC2CCN(c3ncc(C(=O)NO)cn3)CC2)c2ccccc21 [Compound 34]
1.58 µM | 8.4 |  | CCCn1cc(CNCC2CCN(c3ncc(C(=O)NO)cn3)CC2)c2ccc(Cl)cc21 [Compound 41]
0.0316 µM | >9.0 |  | O=C(NO)c1cnc(N2CCC(CNCc3cccc4cc[nH]c34)CC2)nc1 [Compound 63]
0.00631 µM | >9.0 |  | O=C(NO)c1cnc(N2CCC(CNCc3cn(CC4CC4)c4ccccc34)CC2)nc1 [Compound 48]
0.316 µM | 7.5 |  | CCC(=O)N(CCc1cn(C)c2cc(OC)ccc12)CC1CCN(c2ncc(C(=O)NO)cn2)CC1 [Compound 71]
0.0158 µM | 8.9 |  | O=C(NO)c1cnc(N2CCC(CNCc3cccc4[nH]ccc34)CC2)nc1 [Compound 64]
0.0251 µM | 9.2 |  | Cn1cc(CNCC2CCN(c3ncc(C(=O)NO)cn3)CC2)c2ccc(Cl)cc21 [Compound 56]
0.01 µM | 10.0 |  | CC(C)n1cc(CNCC2CCN(c3ncc(C(=O)NO)cn3)CC2)c2ccccc21 [Compound 53]
0.126 µM | 7.9 |  | Cc1[nH]c2ccccc2c1CCNC1CCN(c2ncc(C(=O)NO)cn2)CC1 [Compound 29]
0.158 µM | 7.8 |  | O=C(NO)c1cnc(N2CCC(CNCCc3c[nH]c4ccc(Cl)cc34)CC2)nc1 [Compound 17]
0.158 µM | 8.5 |  | CCC(=O)N(CCc1cn(C)c2ccccc12)CC1CCN(c2ncc(C(=O)NO)cn2)CC1 [Compound 70]
0.0251 µM | 8.9 |  | CCn1cc(CNCC2CCN(c3ncc(C(=O)NO)cn3)CC2)c2ccc(OC)cc21 [Compound 61]
0.0794 µM | 7.9 |  | CCN(CCc1cn(C)c2cc(OC)ccc12)CC1CCN(c2ncc(C(=O)NO)cn2)CC1 [Compound 73]
0.0794 µM | 8.3 |  | O=C(NO)c1cnc(N2CCC(CNCc3cc4ccccc4s3)CC2)nc1 [Compound 9]
0.01 µM | 9.5 |  | CCCn1cc(CNCC2CCN(c3ncc(C(=O)NO)cn3)CC2)c2ccccc21 [Compound 62]

Structure (SMILES) | IC50 [1] | Enzymatic activity pIC50 C.1.b [2] | solubility [3]
Cn1cc(CNCC2CCN(c3ncc(C(=O)NO)cn3)CC2)c2ccccc21 [Compound 1a] | 0.00631 µM |  | 1.4 mg/mL (≈ 3.55 mM)
